We go through one molecule from PMC3421038 (The Pediatric infectious disease journal, 2012).

Each structure is given as a SMILES string. Like-named read-outs stand apart in the source and are kept apart here.

For data set [1] the following is noted: human, in vivo, iv, 6 mg/kg.
For data set [2] the following is noted: in vivo.
For data set [3] the following is noted: in vivo, cited from earlier work.
The conditions of data set [4]: human, in vivo, cited from earlier work.
For data set [5] the following is noted: human, in vivo; cited from earlier work.
Data set [6] concerns hepatic cytochrome P450 enzyme system. The conditions noted are these: cited from earlier work.

`CCCCCCCCCC(=O)N[C@@H](Cc1c[nH]c2ccccc12)C(=O)N[C@H](CC(N)=O)C(=O)N[C@@H](CC(=O)O)C(=O)N[C@@H]1C(=O)NCC(=O)N[C@@H](CCCN)C(=O)N[C@@H](CC(=O)O)C(=O)N[C@H](C)C(=O)N[C@@H](CC(=O)O)C(=O)NCC(=O)N[C@H](CO)C(=O)N[C@@H]([C@H](C)CC(=O)O)C(=O)N[C@@H](CC(=O)c2ccccc2N)C(=O)O[C@@H]1C` [daptomycin]: in data set [1], the AUC(0-t) (usually the area under the concentration-time curve up to a stated or last time point) was 262 µg·h/mL; the peak level (Cmax) was 25500 ng/mL; the clearance – broadly, a measure of how efficiently the substance is removed, as volume per time – was 0.35 mL/min/kg; the half-life – broadly, the time needed for the level to fall by half in the phase considered – is 6.2 h. In addition, in data set [2], the “CPK value after the dose of daptomycin” value was determined as 86 IU/L, the “CPK value before the dose of daptomycin” value is recorded as 132 IU/L, the “calcium level after the daptomycin dose” value was determined as 9.7 and the “calcium level before the daptomycin dose” value was 9.3. Moreover, the “respiratory rate, temperature, heart rate, or mean blood pressure during the daptomycin infusion” value in data set [2] (6 mg/kg) was “No significant changes”. In data set [2] (iv, 6 mg/kg), the “adverse events classified as serious adverse events” value is recorded as “Five”, the “adverse events related to study drug” value is “None”, the “adverse events reported (number of events)” value is reported as 34 and the “subjects with adverse events” value was determined as 55%. For the same molecule, the “mean exposure (AUCinf)” value in data set [3] (4 mg/kg) was 417 µg·h/mL. In addition, in data set [3], the “administered dose excreted within 24 hours as intact drug” value is 50% and the “kinetics (dose linearity)” value is “linear kinetics”. Also, the “mean exposure (AUCinf)” value in data set [4] (8 mg/kg) is 429 µg·h/mL. Moreover, the “mean exposure (AUCinf)” value in data set [4] (10 mg/kg) is 550 µg·h/mL. In addition, in data set [5], the “patients with cellulitis as serious adverse event” value is on record as 1.3%, the “patients with elevation of CPK concentrations” value is recorded as 2.1% and the renal toxicity result is reported as “does not cause renal toxicity”. Further, the “effect on the hepatic cytochrome P450 enzyme system” value in data set [6] was “does not have an effect”.
